Laboratory results as given in patent US20230096766A1, “AMINO ACID HAVING FUNCTIONAL GROUP CAPABLE OF INTERMOLECULAR HYDROGEN BONDING, PEPTIDE COMPOUND CONTAINING SAME AND METHOD FOR PRODUCTION THEREOF” (Chugai Seiyaku Kabushiki Kaisha, priority 2018, published 2023).
*1 amine or outer side, *2 acyl side, *3 side chain or, on linkers, in order; H or OH if unused. Where a SMILES comes first, the peptide text is derived from it. Bridges are numbered along the chain shown (N, C = ends). [ ]: non-standard residue; d: D form. The star is where a group is joined. NMeHph(3-OMe-4-CONHMe) = CNC(=O)c1ccc(CC[C@H](NC)C(=O)O)cc1OC; hPhe(3-OMe,4-CONHMe) = CNC(=O)c1ccc(CC[C@H](N)C(=O)O)cc1OC; Phe(3-CONHMe,4-OMe) = CNC(=O)c1cc(C[C@H](N)C(=O)O)ccc1OC; Phe(3-OMe,4-CONHMe) = CNC(=O)c1ccc(C[C@H](N)C(=O)O)cc1OC; NMePhe(3-Cl) = CN[C@@H](Cc1cccc(Cl)c1)C(=O)O; NMehPhe = CN[C@@H](CCc1ccccc1)C(=O)O; X9 = O=C([C@@H](CN[*:1])COCCO)[*:2]; Propyl(2,2-Me2,3-OH) = CC(C)(CO)C*; X6 = O=C([C@H](CCCCO)N[*:1])[*:2]; NMeF = CN[C@@H](Cc1ccccc1)C(=O)O; NMeGABA = CN(CCCC(=O)[*:2])[*:1]; NMeI = CC[C@H](C)[C@H](NC)C(=O)O; Butyl(3-Me,3-OH) = CC(C)(O)CC*; NMeL = CN[C@@H](CC(C)C)C(=O)O; Propyl(2R-OH) = C[C@@H](O)C*; NMeV = CN[C@H](C(=O)O)C(C)C; NMeAbu = CC[C@H](NC)C(=O)O; NMeA = CN[C@@H](C)C(=O)O; Piperidide = C1CCN(*)CC1; dAbu = CC[C@@H](N)C(=O)O; Abu = CC[C@H](N)C(=O)O; X8 = C1COC[C@@H](C*)N1; Me2NCH2CH2 = CN(C)CC*; NBuGly = CCCCNCC(=O)O; Isopentyl = CC(C)CC*; NPrGly = CCCNCC(=O)O; X3 = C[C@H](O)C*; Sar = CNCC(=O)O; tBu = CC(C)(C)*

Assay: in vitro
Conditions: human, Caco-2, Caco-2

| Structure (SMILES) | Papp [×10⁻⁶ cm/s] |
| --- | --- |
| CCCCN1CC(=O)N(C)[C@@H](Cc2ccccc2)C(=O)N[C@@H](COCCN(C)C)C(=O)N(C)[C@@H](CC(C)C)C(=O)N[C@@H]([C@@H](C)O)C(=O)N(C)CC(=O)N(C)[C@@H](Cc2ccccc2)C(=O)N(C)[C@@H](CC)C(=O)N[C@@H](COCCC(C)C)C(=O)N(C)[C@@H](CC(C)C)C(=O)N[C@H](C(=O)N2CCCCC2)CC1=O [pd58] ([NBuGly][NMeF]S(Me2NCH2CH2)[NMeL]T[Sar][NMeF][NMeAbu]S(Isopentyl)[NMeL]D-Piperidide; lactam N-11) | 0.021 |
| CC(C)C[C@@H]1NC(=O)[C@H](CC(C)C)N(C)C(=O)CCCN(C)C(=O)C[C@@H](C(=O)N2CCCCC2)NC(=O)[C@H](CC(C)C)N(C)C(=O)[C@H](CC(C)C)N(C)C(=O)[C@H]([C@@H](C)O)NC(=O)[C@H](CC(C)C)N(C)C(=O)[C@H](COCCN(C)C)NC(=O)[C@H](Cc2ccccc2)N(C)C(=O)[C@H](Cc2ccccc2)N(C)C1=O [pd54] ([NMeGABA][NMeL]L[NMeF][NMeF]S(Me2NCH2CH2)[NMeL]T[NMeL][NMeL]D-Piperidide; lactam N-11) | 0.073 |

Same assay, conditions: human, Caco-2, Caco-2 (cm/sec)

| Structure (SMILES) | Papp [×10⁻⁶ cm/s] |
| --- | --- |
| CC[C@H](C)[C@H]1C(=O)N[C@@H]([C@@H](C)O)C(=O)N(C)CC(=O)N(C)[C@@H](CC(C)C)C(=O)N[C@H](C(=O)N2CCCCC2)CC(=O)N(C)[C@@H](C(C)C)C(=O)N[C@@H](COC[C@H](C)O)C(=O)N(C)[C@@H](CC(C)C)C(=O)N(C)[C@@H](Cc2cccc(Cl)c2)C(=O)N[C@@H](CC(C)C)C(=O)N(C)[C@@H](Cc2ccccc2)C(=O)N1C [AP69] ([NMeV]S(X3)[NMeL][NMePhe(3-Cl)]L[NMeF][NMeI]T[Sar][NMeL]D-Piperidide; lactam N-11) | 0.7 |
| CC[C@@H]1NC(=O)[C@H](CCc2ccc(C(=O)NC)c(OC)c2)N(C)C(=O)[C@H](CC(C)C)N(C)C(=O)[C@H](CC(C)C)NC(=O)[C@H](C)N(C)C(=O)C[C@@H](C(=O)N2CCCCC2)NC(=O)[C@H](CC(C)C)N(C)C(=O)CN(C)C(=O)[C@H]([C@@H](C)O)NC(=O)[C@H](CC(C)C)N(C)C(=O)[C@H](Cc2ccccc2)N(C)C1=O [AP229] ([NMeA]L[NMeL][NMeHph(3-OMe-4-CONHMe)][Abu][NMeF][NMeL]T[Sar][NMeL]D-Piperidide; lactam N-11) | 0.43 |
| CC[C@H](C)[C@H]1C(=O)N[C@@H]([C@@H](C)O)C(=O)N(C)CC(=O)N(C)[C@@H](CC(C)C)C(=O)N[C@H](C(=O)N2CCCCC2)CC(=O)N(C)[C@@H](C(C)C)C(=O)N[C@@H](COC[C@@H](C)O)C(=O)N(C)[C@@H](CC(C)C)C(=O)N(C)[C@@H](Cc2cccc(Cl)c2)C(=O)N[C@@H](CC(C)C)C(=O)N(C)[C@@H](Cc2ccccc2)C(=O)N1C [AP79] ([NMeV]S(Propyl(2R-OH))[NMeL][NMePhe(3-Cl)]L[NMeF][NMeI]T[Sar][NMeL]D-Piperidide; lactam N-11) | 1.1 |
| CC(C)CCOC[C@@H]1NC(=O)[C@H](CC(C)C)N(C)C(=O)CN(C)C(=O)[C@H]([C@@H](C)O)NC(=O)[C@H](CC(C)C)N(C)C(=O)[C@H](COCCC(C)(C)O)NC(=O)[C@H](Cc2ccccc2)N(C)C(=O)[C@@H](C(C)C)NC(=O)C[C@@H](C(=O)N2CCCCC2)NC(=O)[C@H](CC(C)C)N(C)C(=O)[C@H](Cc2ccccc2)N(C)C1=O [AP51] ([dV][NMeF]S(Butyl(3-Me,3-OH))[NMeL]T[Sar][NMeL]S(Isopentyl)[NMeF][NMeL]D-Piperidide; lactam N-11) | 1.4 |
| CCCCN1CC(=O)N(C)[C@@H](CC(C)C)C(=O)N[C@@H](COC[C@@H]2COCCN2)C(=O)N(C)[C@@H](CC(C)C)C(=O)N(C)[C@@H](CC(C)C)C(=O)N[C@H](C(=O)N2CCCCC2)CC(=O)N[C@H](C(C)C)C(=O)N(C)[C@@H](Cc2ccccc2)C(=O)N[C@@H](CC(C)C)C(=O)N(C)[C@@H](CC)C(=O)N[C@@H]([C@@H](C)O)C1=O [AP239] ([dV][NMeF]L[NMeAbu]T[NBuGly][NMeL]S(X8)[NMeL][NMeL]D-Piperidide; lactam N-11) | 0.18 |
| CCCCN1CC(=O)N(C)[C@@H](CC(C)C)C(=O)N[C@@H](COC(C)(C)C)C(=O)N(C)[C@@H]([C@@H](C)CC)C(=O)N(C)[C@@H](CC(C)C)C(=O)N[C@H](C(=O)N2CCCCC2)CC(=O)N[C@H](C)C(=O)N(C)[C@@H](Cc2ccccc2)C(=O)N[C@@H](Cc2ccc(OC)c(C(=O)NC)c2)C(=O)N(C)[C@@H](CC(C)C)C(=O)N[C@@H]([C@@H](C)O)C1=O [AP37] ([dA][NMeF][Phe(3-CONHMe,4-OMe)][NMeL]T[NBuGly][NMeL]S(tBu)[NMeI][NMeL]D-Piperidide; lactam N-11) | 0.4 |
| CCCCN1CC(=O)N(C)[C@@H](Cc2ccccc2)C(=O)N(C)[C@@H](CC(C)C)C(=O)N[C@@H](CC(C)C)C(=O)N(C)[C@@H](CC(C)C)C(=O)N[C@H](C(=O)N2CCCCC2)CC(=O)N(C)CC(=O)N(C)[C@@H](CC(C)C)C(=O)N[C@@H](Cc2ccc(O)cc2)C(=O)N(C)[C@@H](CC)C(=O)N[C@@H]([C@@H](C)O)C1=O [Compound F07] ([Sar][NMeL]Y[NMeAbu]T[NBuGly][NMeF][NMeL]L[NMeL]D-Piperidide; lactam N-11) | 0.54 |
| CC(C)C[C@@H]1NC(=O)[C@H](CCc2ccccc2)N(C)C(=O)[C@H](CCc2ccccc2)N(C)C(=O)[C@H](CCCCO)NC(=O)[C@H](C(C)C)N(C)C(=O)CCCN(C)C(=O)C[C@@H](C(=O)N2CCCCC2)NC(=O)[C@H](CC(C)C)N(C)C(=O)[C@H](CC(C)C)N(C)C(=O)[C@H]([C@@H](C)O)NC(=O)[C@H](CC(C)C)N(C)C1=O [Compound B03] ([NMeGABA][NMeV][X6][NMehPhe][NMehPhe]L[NMeL]T[NMeL][NMeL]D-Piperidide; lactam N-11) | 0.27 |
| CCCCN1CC(=O)N(C)[C@@H](Cc2ccccc2)C(=O)N[C@@H]([C@@H](C)CC)C(=O)N(C)[C@@H](CC(C)C)C(=O)N[C@@H]([C@@H](C)O)C(=O)N(CCC)CC(=O)N(C)[C@@H](Cc2ccccc2)C(=O)N(C)[C@@H](CC(C)C)C(=O)NC[C@@H](COCCO)C(=O)N(C)[C@@H](CC(C)C)C(=O)N[C@H](C(=O)N2CCCCC2)CC1=O [AP134] ([NBuGly][NMeF]I[NMeL]T[NPrGly][NMeF][NMeL][X9][NMeL]D-Piperidide; lactam N-11) | 0.62 |
| CCCCN1CC(=O)N(C)[C@@H](CC(C)C)C(=O)N[C@@H](COC(C)(C)C)C(=O)N(C)[C@@H](Cc2ccccc2)C(=O)N(C)[C@@H](CC(C)C)C(=O)N[C@H](C(=O)N2CCCCC2)CC(=O)N[C@H](CC)C(=O)N(C)[C@@H](Cc2ccccc2)C(=O)N[C@@H](COCC(C)(C)CO)C(=O)N(C)[C@@H](CC(C)C)C(=O)N[C@@H]([C@@H](C)O)C1=O [AP117] ([dAbu][NMeF]S(Propyl(2,2-Me2,3-OH))[NMeL]T[NBuGly][NMeL]S(tBu)[NMeF][NMeL]D-Piperidide; lactam N-11) | 0.36 |
| CC[C@H](C)[C@@H]1NC(=O)[C@H](CC(C)C)N(C)C(=O)CN(C)C(=O)C[C@@H](C(=O)N2CCCCC2)NC(=O)[C@H](CC(C)C)N(C)C(=O)[C@H](Cc2ccc(C(=O)NC)c(OC)c2)NC(=O)[C@H](CC(C)C)N(C)C(=O)[C@H](Cc2cccc(Cl)c2)N(C)C(=O)CN(C)C(=O)[C@H]([C@@H](C)O)NC(=O)[C@H](CC(C)C)N(C)C1=O [AP34] ([Sar][NMeL]I[NMeL]T[Sar][NMePhe(3-Cl)][NMeL][Phe(3-OMe,4-CONHMe)][NMeL]D-Piperidide; lactam N-11) | 0.2 |
| CCCCN1CC(=O)N(C)[C@@H](Cc2ccccc2)C(=O)N[C@@H]([C@@H](C)CC)C(=O)N(C)[C@@H](CC(C)C)C(=O)N[C@@H]([C@@H](C)O)C(=O)N(C)CC(=O)N(C)[C@@H](CCc2ccc(C(=O)NC)c(OC)c2)C(=O)N(C)[C@@H](CC(C)C)C(=O)N[C@@H](COC(C)(C)C)C(=O)N(C)[C@@H](CC(C)C)C(=O)N[C@H](C(=O)N2CCCCC2)CC1=O [AP232] ([NBuGly][NMeF]I[NMeL]T[Sar][NMeHph(3-OMe-4-CONHMe)][NMeL]S(tBu)[NMeL]D-Piperidide; lactam N-11) | 2 |
| CC(C)C[C@@H]1NC(=O)[C@H](C)N(C)C(=O)C[C@@H](C(=O)N2CCCCC2)NC(=O)[C@H](CC(C)C)N(C)C(=O)CN(C)C(=O)[C@H]([C@@H](C)O)NC(=O)[C@H](Cc2ccccc2)N(C)C(=O)[C@H](Cc2ccccc2)N(C)C(=O)[C@H](CC(C)C)NC(=O)[C@H](Cc2ccccc2)N(C)C(=O)[C@H](CC(C)C)N(C)C1=O [pd204] ([NMeA]L[NMeL][NMeF]L[NMeF][NMeF]T[Sar][NMeL]D-Piperidide; lactam N-11) | 2 |
| CC[C@H]1C(=O)N[C@@H](CCc2ccc(C(=O)NC)c(OC)c2)C(=O)N(C)[C@@H](CC(C)C)C(=O)N(C)[C@@H](CC(C)C)C(=O)N[C@@H](C(C)C)C(=O)N(C)[C@@H](Cc2ccccc2)C(=O)N(C)[C@@H](CC(C)C)C(=O)N[C@@H]([C@@H](C)O)C(=O)N(C)CC(=O)N(C)[C@@H](CC(C)C)C(=O)N[C@H](C(=O)N2CCCCC2)CC(=O)N1C [AP205] ([NMeAbu][hPhe(3-OMe,4-CONHMe)][NMeL][NMeL]V[NMeF][NMeL]T[Sar][NMeL]D-Piperidide; lactam N-11) | 0.79 |
| CC(C)CCOC[C@@H]1NC(=O)[C@H](Cc2cccc(Cl)c2)N(C)C(=O)[C@H](Cc2ccccc2)N(C)C(=O)[C@H](COC[C@H](C)O)NC(=O)[C@H](CC(C)C)N(C)C(=O)CCCN(C)C(=O)C[C@@H](C(=O)N2CCCCC2)NC(=O)[C@H](CC(C)C)N(C)C(=O)[C@H](CC(C)C)N(C)C(=O)[C@H]([C@@H](C)O)NC(=O)[C@H](CC(C)C)N(C)C1=O [AP63] ([NMeGABA][NMeL]S(X3)[NMeF][NMePhe(3-Cl)]S(Isopentyl)[NMeL]T[NMeL][NMeL]D-Piperidide; lactam N-11) | 0.14 |
| CC(C)C[C@H]1C(=O)N[C@@H](C(C)C)C(=O)N(C)[C@@H](CCc2ccccc2)C(=O)N(C)[C@@H](CCc2ccccc2)C(=O)N[C@@H](CCCCO)C(=O)N(C)[C@@H](CC(C)C)C(=O)N[C@@H]([C@@H](C)O)C(=O)N(C)[C@@H](CC(C)C)C(=O)N(C)[C@@H](CC(C)C)C(=O)N[C@H](C(=O)N2CCCCC2)CC(=O)N(C)CCCC(=O)N1C [Compound B04] ([NMeGABA][NMeL]V[NMehPhe][NMehPhe][X6][NMeL]T[NMeL][NMeL]D-Piperidide; lactam N-11) | 0.07 |
